Paper PMC9945734 (BMC Medicine, 2023)

Columns and labels:
[1] = target: T1, KLF5^K369Q protein (Homo sapiens, UniProt Q13887, K369Q); assay: Fluorescence titration (quenching) of KLF5 protein; conditions: read-out: binding constant Kd
T1 construct: made in house; host or cells: E. coli BL21 DE3
Description: (§1) Wild-type or mutant KLF5 protein at 1 μM in 2 mL PBS was measured for fluorescence spectrum using a fluorescence spectrometer (HORIBA, Kyoto, Japan), and the fluorescence spectra were obtained for wavelengths of 300–500 nm. NTZ with various concentration ranges and various increments were used in the analysis, including 0.1–1 μM with an increment of 0.1 μM, 1–5 μM with an increment of 0.5 μM, 5–10 μM with an increment of 1 μM, and 10–30 μM with an increment of 5 μM. The incubation with NTZ was for 5 s at room temperature. Data were processed and fitted to obtain the binding affinities using the Origin software (OriginLab, Northampton, MA, USA), and Kd values were determined by the responses at […] wavelength.

[2] = target: T2, KLF5^K369R protein (Homo sapiens, UniProt Q13887, K369R); assay: Fluorescence titration (quenching) of KLF5 protein; conditions: read-out: binding constant Kd
T2 construct: made in house; host or cells: E. coli BL21 DE3
T2 sequence (Q13887 whole entry K369R): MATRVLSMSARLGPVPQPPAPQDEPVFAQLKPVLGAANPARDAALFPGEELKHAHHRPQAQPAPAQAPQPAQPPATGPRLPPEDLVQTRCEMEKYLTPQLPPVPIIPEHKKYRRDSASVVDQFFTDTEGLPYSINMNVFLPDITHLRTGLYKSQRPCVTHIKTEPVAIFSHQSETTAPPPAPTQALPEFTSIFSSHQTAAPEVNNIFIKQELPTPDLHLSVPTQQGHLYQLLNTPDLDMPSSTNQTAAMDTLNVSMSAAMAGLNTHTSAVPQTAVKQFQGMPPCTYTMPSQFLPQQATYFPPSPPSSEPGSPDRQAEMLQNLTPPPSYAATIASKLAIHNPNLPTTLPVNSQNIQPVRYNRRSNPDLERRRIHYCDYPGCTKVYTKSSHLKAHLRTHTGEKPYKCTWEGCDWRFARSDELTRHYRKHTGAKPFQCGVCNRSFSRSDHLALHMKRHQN
Description: as §1

[3] = tested on: PC-3-KLF5, PC-3-KQ, DU 145-KLF5 and DU 145-KQ cell spheroids; assay: 3D spheroid invasion assay, KLF5^K369Q- versus KLF5-expressing cells; type: cell-based, human; conditions: 0-10 μM
Description: The invasion assay was performed as previously described. Briefly, PC-3-KQ cells at 80-90% confluency were plated onto 384-well round bottom plates with ultra-low attachment (Cat #: 4516, Corning) at 500 cells per well in 80 μL medium. The plates were then centrifuged at 320 g for 4 min to cluster cells in the bottom of wells and incubated for 3 days. On the fourth day, 40 μL medium was removed from each well, 40 μL of the matrigel-medium mixture was added to each well, and cells were cultured for another 3 days. The matrigel (Cat #: 354234, Corning) was from Corning, and the medium contained 1% FBS. At the end of the incubation, images were taken using a phase contrast microscope (Eclipse Ti2, Nikon, Tokyo, Japan) with 10× object lenses, and the total area of cells and the core sphere area of cells (Fig. 1a) were measured using the Image J software. The invading area was calculated using the following formula: invasion area = total area of cells – core sphere area.
Figure S2. The effect of NTZ on acetylated (KQ) and non-mutated KLF5 cell invasion. (a) The effect of NTZ on the invasion of PC-3-KLF5, PC-3-KQ, DU 145-KLF5 and DU 145-KQ cell spheroids at different concentrations (0-10 μM) and quantitative analysis (b). *, p < 0.05; ***, p < 0.001.

[4] = tested on: PC-3-KR-Luc cells; assay: Bone metastasis assay, prevention mode; type: in vivo, Balb/c nude mice; conditions: 100 mg/kg intragastric every day
Excerpt: (§2) Male Balb/c nude mice at 3-4 weeks old were purchased from Charles River (Beijing, China). Upon arrival at the Animal Center of the Southern University of Science and Technology (SUSTech), mice were quarantined for one week before use. All mice were maintained and handled following the National Institutes of Health guide for the Care and Use of Laboratory Animals. To measure if NTZ inhibits Ac-KLF5-induced bone metastasis, we used both prevention and therapy modes. […] Then the mice were randomly divided into vehicle and NTZ groups (six mice in each group) and received treatment at day 0. The tumor growth and body weight were determined every week. After 5 weeks of treatment, all mice were sacrificed and bone tissues and major organs were resected for hematoxylin and eosin (H&E) staining. The selection of 5 weeks for investigation is based on the pilot experiment, in which clear bone metastases formed at 5 weeks after injection but no tumors were detected in other organs, including the brain, liver, lung, spleen, heart, prostate, seminal vesicle, small intestine, and testes (data not shown). Tumor growth in the bone was determined once a week by in vivo BL imaging using the Living Image Software 4.4 (IVIS Spectrum, PerkinElmer Health Sciences, Massachusetts, USA). Ten minutes after intraperitoneal injection of D-luciferin sodium salt (15 mg/mL, 10 μL/g BW) (GM-040611, Genomeditech, Shanghai, China), bioluminescence images were acquired with the following conditions: open emission filter, exposure time = 60 s, binning = medium: 8, field of view = 12.9 ×12.9 cm, and f/stop = 1. Images were then analyzed using the Living Image 4.4 software (PerkinElmer). At the end of treatment, bioluminescence intensities were measured by photon flux of the region of interest (ROI) and compared between the vehicle and NTZ treatment groups. […] CC0113, […] Biotechnology, Beijing, China) was used as vehicle control, and NTZ was solved in CMC. NTZ was delivered into mice via intragastric administration (100 mg/kg BW) every day. Femurs were decalcified in ethylenediaminetetraacetic (EDTA) decalcification solution (Cat #: R20403-5L, OKA, Beijing, China) for 14-21 days. After decalcification, bone tissues were dehydrated in gradient ethanol from 70 to 95%, soaked in n-butanol for 6 h, and then embedded in paraffin. Tissue blocks were cut into 4 μm sections. After baking in an oven at 63°C for 1.5 h, tissue slides were deparaffinized with xylene, hydrated with gradient ethanol, and then stained with H&E (Cat #: BA4025, BaSO, Zhuhai, China). Slides were then mounted for analysis with neutral resins (Cat #: 25608-33-7, Sigma-Aldrich, MO, USA).

[5] = tested on: PC-3-KQ-Luc cells; assay: Bone metastasis assay, prevention mode; type: in vivo, Balb/c nude mice; conditions: 100 mg/kg intragastric every day
Excerpt: as §2

[6] = by inhibiting RANKL-induced osteoclastogenesis; cited from earlier work

T1 sequence (Q13887 whole entry K369Q): as the sequence (Q13887 whole entry K369R) above, with R369Q counted along it

CC(=O)Oc1ccccc1C(=O)Nc1ncc([N+](=O)[O-])s1 [Nitazoxanide]
Kd [1]: 5.4 µM
Kd [2]: 7.3 µM
invasion inhibition in KLF5^K369Q- versus KLF5-expressing cells [3]: more potent in invasion inhibition
tumor cell area in bone sections (H&E) [4]: not significantly affected
bioluminescence intensity ([4]; day 35): did not have a significant effect
tumor cell area in bone sections (H&E) [5]: significantly decreased tumor cell area
bone metastasis, bioluminescence signals ([5]; day 35): dramatically reduced bone metastasis
bone loss in ovariectomized mice [6]: reduces bone loss
